# Data: ChEMBL document CHEMBL1201862, “PubChem BioAssay data set” (2004)
#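 Where inhibition never reached the appropriate level, the endpoint shown equals the highest concentration tested. Otherwise, values were interpolated linearly from a five-concentration, 48-hour dose response in 96-well plates. GI50 = concentration required for 50% inhibition of growth.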 The source made the active and inactive calls. Rule as the data show it: active = GI50 up to about 1.1 µM and inactive = higher.
# How the values were obtained:
# Assay in all cases: NCI-60 cell line screen, 48 h
# [1] = test system: CCRF-CEM
# [2] = test system: LOX IMVI
# [3] = test system: OVCAR-4
# [4] = test system: CAKI-1
# [5] = test system: HL-60
# [6] = test system: OVCAR-3
# [7] = test system: SF-268
# [8] = test system: KM-20L2
# [9] = test system: NCI-H460
# [10] = test system: Malme-3M
# [11] = test system: RPMI-8226
# [12] = test system: SNB-78
# [13] = test system: COLO 205
# [14] = test system: NCI-H23
# [15] = test system: IGROV-1
# [16] = test system: DMS-273
# [17] = test system: EKVX
# [18] = test system: A498
# [19] = test system: K562
# [20] = test system: LXFL 529
# [21] = test system: A549
# [22] = test system: M14
# [23] = test system: UO-31
# [24] = test system: SW-620
# [25] = test system: SF-295
# [26] = test system: M19-MEL
# [27] = test system: DLD-1
# [28] = test system: SN12C
# [29] = test system: 786-0
# [30] = test system: NCI-H226
# [31] = test system: SK-MEL-28
# [32] = test system: HOP-92
# [33] = test system: SK-OV-3
# [34] = test system: NCI-H522
# [35] = test system: OVCAR-5
# [36] = test system: SK-MEL-2
# [37] = test system: TK-10
# [38] = test system: XF498
# [39] = test system: RXF 393
# [40] = test system: HCT-15
# [41] = test system: UACC-257
# [42] = test system: SNB-75
# [43] = test system: SK-MEL-5
# [44] = test system: MOLT-4
# [45] = test system: HCC 2998
# [46] = test system: U-251
# [47] = test system: DMS-114
# [48] = test system: OVCAR-8
# [49] = test system: HCT-116
# [50] = test system: KM12
# [51] = test system: ACHN
# [52] = test system: SR
# [53] = test system: HOP-62
# [54] = test system: HOP-18
# [55] = test system: HT-29
# [56] = test system: SF-539
# [57] = test system: UACC-62
# [58] = test system: SNB-19
structure (smiles),measurement,setting,value
O=C1c2ccccc2C(Br)(Br)c2ccccc21,GI50,[1],> 31.6 µM (inactive)
same,GI50,[2],> 31.6 µM (inactive)
same,GI50,[3],1.16 µM (inactive)
same,GI50,[4],> 10 µM (inactive)
same,GI50,[5],> 31.6 µM (inactive)
same,GI50,[6],> 31.6 µM (inactive)
same,GI50,[7],25.5 µM (inactive)
same,GI50,[8],> 100 µM (inactive)
same,GI50,[9],> 31.6 µM (inactive)
same,GI50,[10],> 31.6 µM (inactive)
same,GI50,[11],> 10 µM (inactive)
same,GI50,[12],> 100 µM (inactive)
same,GI50,[13],> 31.6 µM (inactive)
same,GI50,[14],> 100 µM (inactive)
same,GI50,[15],> 31.6 µM (inactive)
same,GI50,[16],> 31.6 µM (inactive)
same,GI50,[17],> 100 µM (inactive)
same,GI50,[18],> 10 µM (inactive)
same,GI50,[19],> 31.6 µM (inactive)
same,GI50,[20],> 31.6 µM (inactive)
same,GI50,[21],> 31.6 µM (inactive)
same,GI50,[22],> 31.6 µM (inactive)
same,GI50,[23],> 31.6 µM (inactive)
same,GI50,[24],> 31.6 µM (inactive)
same,GI50,[25],> 31.6 µM (inactive)
same,GI50,[26],> 31.6 µM (inactive)
same,GI50,[27],> 31.6 µM (inactive)
same,GI50,[28],> 31.6 µM (inactive)
same,GI50,[29],> 31.6 µM (inactive)
same,GI50,[30],> 31.6 µM (inactive)
same,GI50,[31],> 31.6 µM (inactive)
same,GI50,[32],> 100 µM (inactive)
same,GI50,[33],> 31.6 µM (inactive)
same,GI50,[34],25.4 µM (inactive)
same,GI50,[35],> 31.6 µM (inactive)
same,GI50,[36],> 31.6 µM (inactive)
same,GI50,[37],> 100 µM (inactive)
same,GI50,[38],29.3 µM (inactive)
same,GI50,[39],18.2 µM (inactive)
same,GI50,[40],> 31.6 µM
same,GI50,[41],> 100 µM (inactive)
same,GI50,[42],14.9 µM (inactive)
same,GI50,[43],> 31.6 µM (inactive)
same,GI50,[44],> 31.6 µM (inactive)
same,GI50,[45],> 31.6 µM (inactive)
same,GI50,[46],> 31.6 µM (inactive)
same,GI50,[47],> 31.6 µM (inactive)
same,GI50,[48],> 100 µM (inactive)
same,GI50,[49],> 31.6 µM (inactive)
same,GI50,[50],> 100 µM (inactive)
same,GI50,[51],> 31.6 µM (inactive)
same,GI50,[52],> 31.6 µM (inactive)
same,GI50,[53],> 10 µM (inactive)
same,GI50,[54],> 31.6 µM (inactive)
same,GI50,[55],> 100 µM (inactive)
same,GI50,[56],57.8 µM (inactive)
same,GI50,[57],> 100 µM (inactive)
same,GI50,[58],> 31.6 µM (inactive)
FC(F)(F)c1nc(-c2ccccc2)oc1Sc1oc(-c2ccccc2)nc1C(F)(F)F,GI50,[1],> 100 µM (inactive)
same,GI50,[2],> 100 µM (inactive)
same,GI50,[3],19.7 µM (inactive)
same,GI50,[4],26.8 µM (inactive)
same,GI50,[5],> 100 µM (inactive)
same,GI50,[6],> 100 µM (inactive)
same,GI50,[7],52.5 µM (inactive)
same,GI50,[8],> 100 µM (inactive)
same,GI50,[9],99.1 µM (inactive)
same,GI50,[10],> 100 µM (inactive)
same,GI50,[11],93.3 µM (inactive)
same,GI50,[12],> 100 µM (inactive)
same,GI50,[13],> 100 µM (inactive)
same,GI50,[14],> 100 µM (inactive)
same,GI50,[15],> 100 µM (inactive)
same,GI50,[16],66.7 µM (inactive)
same,GI50,[17],> 100 µM (inactive)
same,GI50,[18],> 100 µM (inactive)
same,GI50,[19],> 100 µM (inactive)
same,GI50,[20],> 100 µM (inactive)
same,GI50,[21],> 100 µM (inactive)
same,GI50,[22],56.9 µM (inactive)
same,GI50,[23],> 100 µM (inactive)
same,GI50,[24],> 100 µM (inactive)
same,GI50,[25],34.4 µM (inactive)
same,GI50,[26],> 100 µM (inactive)
same,GI50,[27],> 100 µM (inactive)
same,GI50,[28],> 100 µM (inactive)
same,GI50,[29],> 100 µM (inactive)
same,GI50,[30],45.2 µM (inactive)
same,GI50,[32],39.1 µM (inactive)
same,GI50,[33],65.3 µM (inactive)
same,GI50,[34],45.8 µM (inactive)
same,GI50,[35],> 100 µM (inactive)
same,GI50,[36],> 100 µM (inactive)
same,GI50,[37],> 100 µM (inactive)
same,GI50,[38],34.8 µM (inactive)
same,GI50,[39],24.7 µM (inactive)
same,GI50,[40],> 100 µM
same,GI50,[41],> 100 µM (inactive)
same,GI50,[42],29.7 µM (inactive)
same,GI50,[43],> 100 µM (inactive)
same,GI50,[44],> 100 µM (inactive)
same,GI50,[45],> 100 µM (inactive)
same,GI50,[46],54.6 µM (inactive)
same,GI50,[47],40.3 µM (inactive)
same,GI50,[48],36.7 µM (inactive)
same,GI50,[49],> 100 µM (inactive)
same,GI50,[50],> 100 µM (inactive)
same,GI50,[51],28.8 µM (inactive)
same,GI50,[52],46.6 µM (inactive)
same,GI50,[53],58.7 µM (inactive)
same,GI50,[54],73.6 µM (inactive)
same,GI50,[55],> 100 µM (inactive)
same,GI50,[56],55.6 µM (inactive)
same,GI50,[57],> 100 µM (inactive)
same,GI50,[58],87.3 µM (inactive)
